Results published in US6297274A, “Nonpeptide endothelin antagonists with increased water solubility” (priority 1998, dated 2001).
Where two headings read alike, the source gives them in different places.

What was measured:
recombinant human ETB R = molecular target: T1, recombinant human ETB R (Homo sapiens, UniProt P24530); test: biochemical; type: binding; settings: human cloned receptor ETB; [125I]-ET-1 (40 pM), 2 hours, 37 °C; read-out: HERBA-B IC50
T1 sequence (P24530 27-442): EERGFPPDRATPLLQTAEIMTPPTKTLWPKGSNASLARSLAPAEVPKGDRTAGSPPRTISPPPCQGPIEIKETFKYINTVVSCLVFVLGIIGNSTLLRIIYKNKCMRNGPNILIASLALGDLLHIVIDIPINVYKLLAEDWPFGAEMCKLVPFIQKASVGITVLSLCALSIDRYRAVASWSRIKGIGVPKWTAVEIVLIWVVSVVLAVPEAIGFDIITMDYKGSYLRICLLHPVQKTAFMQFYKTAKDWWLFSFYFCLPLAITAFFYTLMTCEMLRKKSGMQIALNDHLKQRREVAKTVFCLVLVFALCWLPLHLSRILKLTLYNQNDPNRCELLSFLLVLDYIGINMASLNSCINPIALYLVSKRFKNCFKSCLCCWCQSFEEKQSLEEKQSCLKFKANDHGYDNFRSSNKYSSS
Description: (§1) The following cultured cells were used in binding experiments: CHO-K1 cells expressing recombinant human ETB R (HERBA B), or Ltk-cells expressing human ETA R (HERBA A). […] Membranes were prepared from cultured cells by lysing cells in cold lysis buffer (5 mM HEPES, 2 mM EDTA, pH 7.4) and homogenizing with a Dounce "A" homogenizer. […] Radioligand and competing ligands were prepared in binding buffer containing 20 mM Tris, 2 mM EDTA, and 0.1% BSA.
(§2) The assay was terminated by filtration over Whatman GF/B filters that were presoaked with 50 mM Tris, pH 7.4, containing 0.2% BSA and 100 μM bacitracin. […] binding was defined as total binding minus nonspecific binding.

human ETA R = molecular target: T2, human ETA R (Homo sapiens, UniProt P25101); test: biochemical; type: binding; settings: read-out: HERBA-A IC50
T2 sequence (P25101 21-427): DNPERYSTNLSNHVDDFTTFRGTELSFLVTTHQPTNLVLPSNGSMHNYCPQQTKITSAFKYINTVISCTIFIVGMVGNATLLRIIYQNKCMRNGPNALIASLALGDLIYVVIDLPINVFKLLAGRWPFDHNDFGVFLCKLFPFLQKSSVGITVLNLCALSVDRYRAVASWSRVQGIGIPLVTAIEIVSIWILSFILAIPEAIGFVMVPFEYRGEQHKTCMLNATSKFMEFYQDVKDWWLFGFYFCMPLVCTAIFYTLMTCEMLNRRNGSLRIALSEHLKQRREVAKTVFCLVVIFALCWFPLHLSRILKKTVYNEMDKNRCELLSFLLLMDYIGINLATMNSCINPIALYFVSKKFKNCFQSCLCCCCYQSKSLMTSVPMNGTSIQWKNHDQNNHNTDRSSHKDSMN
Description: as §1, §2

[1] = human cloned receptor ETA, [125I]-ET-1 (40 pM), 2 hours, 37 °C

IC50 (recombinant human ETB R) [nM]	IC50 (human ETA R; [1]) [nM]	IC50 (human ETA R) [nM]	Compound
> 2500	2		COc1ccc(C2(O)OC(=O)C(c3ccc4c(c3)OCO4)=C2Cc2cc(OC)c(OC)c(OCC(=O)NCCN3CCOCC3)c2)cc1 (stereo not drawn) [Example 3, 2-{5-[4-Benzo[1,3]dioxol-5-yl-2-hydroxy-2-(4-methoxy-phenyl)-5-oxo-2,5-dihydro-furan-3-ylmethyl]-2,3-dimethoxy-phenoxy}-N-(2-morpholin-4-yl-ethyl)-acetamide]
> 25000	180		COc1ccc(C2(O)OC(=O)C(c3ccc4c(c3)OCO4)=C2Cc2cc(OC)c(OCCN3CCOCC3)c(OCCN3CCOCC3)c2)cc1 (stereo not drawn) [Example 9, 3-Benzo[1,3]dioxol-5-yl-5-hydroxy-4-[3-methoxy-4,5-bis-(2-morpholin-4-yl-ethoxy)-benzyl]-5(4-methoxy-phenyl)-5H-furan-2-one 2-hydroxyethanesulfonate]
> 2500	2		COc1ccc(C2(O)OC(=O)C(c3cc(OC)cc(OC)c3)=C2Cc2cc(OC)c(OC)c(OCCN(C)C)c2)cc1 (stereo not drawn) [Example 16]
> 2500	12.5		COc1ccc(C2(O)OC(=O)C(c3cc(OC)cc(OC)c3)=C2Cc2cc(OC)c(OC)c(OCCCN3CCN(C)CC3)c2)cc1 (stereo not drawn) [Example 17, 4-{3,4-Dimethoxy-5-[3-(4-methyl-piperazzin-1-yl)-propoxy]-benzyl}-3-(3,5-dimethoxy-phenyl)-5-hydroxy-5-(4-methoxy-phenyl)-5-hydroxy-5-(4-methoxy-phenyl)-5H-furan-2-one]
3350	14		COc1cc(CC2=C(c3ccc4c(c3)OCO4)C(=O)OC2(O)c2ccc(OCCN3CCOCC3)cc2)cc(OC)c1OC (stereo not drawn) [Example 27, 3-Benzo[1,3]dioxol-5-yl-5-hydroxy-5-[4-(2-morpholin-4-ethoxy)-phenyl]-4-(3,4,5-trimethoxy-benzyl)-5H-furan-2-one]
4100		12	COc1cc(CC2=C(c3ccc4c(c3)OCO4)C(=O)OC2(O)c2ccc(OCCN3CCOCC3)cc2)cc(OC)c1OC (stereo not drawn) [Example 28, 3-Benzo[1,3]dioxol-5-yl-5-hydroxy-5-[4-(2-morpholin-4-yl-ethoxy)-phenyl]-4-(3,4,5-trimethoxy-benzyl)-5H-furan-2-one 2-hydroxyethanesulfonate]
17000	40		COc1cc(CC2=C(c3ccc4c(c3)OCO4)C(=O)OC2(O)c2ccc(OCCCN(C)C)cc2)cc(OC)c1OC (stereo not drawn) [Example 29, 3-Benzo[1,3]dioxol-5-yl-5-[4-(3-dimethylamino-propoxy)-phenyl]-5-hydroxy-4-(3,4,5-trimethoxy-benzyl)-5H-furan-2-one]
> 2500	180		COc1cc(CC2=C(c3ccc4c(c3)OCO4)C(=O)OC2(O)c2ccc(OCCCN(C)C)cc2)cc(OC)c1OC (stereo not drawn) [Example 30, 3-Benzo[1,3]dioxol-5-yl-5-[4-(3-dimethylamino-propoxy)-phenyl]-5-hydroxy-4-(3,4,5-trimethoxy-benzyl)-5H-furan-2-one 2-hydroxyethanesulfonate]
2700	2		CNc1cccc(CC2=C(c3ccc4c(c3)OCO4)C(=O)OC2(O)c2ccc(OC)cc2)c1 (stereo not drawn) [Example 31, 3-Benzo[1,3]dioxol-5-yl-5-hydroxy-5-(4-methoxy-phenyl)-4-(3-methylamino-benzyl)-5H-furan-2-one]
900	4		COc1ccc(C2(O)OC(=O)C(c3ccc4c(c3)OCO4)=C2Cc2cccc(CN(C)C)c2)cc1 (stereo not drawn) [Example 32]
110	0.6		COc1ccc(C2(O)OC(=O)C(c3cc(OC)c4c(c3)OCO4)=C2Cc2cccc(CN(C)C)c2)cc1 (stereo not drawn) [Example 34, 4-(3-Dimethylaminomethyl-benzyl)-5-hydroxy-3-(7-methoxy-benzo[1,3]dioxol-5-yl)-5-(4-methoxy-phenyl)-5H-furan-2-one]
210	1		COc1ccc(C2(O)OC(=O)C(c3cc(OC)c4c(c3)OCO4)=C2Cc2cccc(CN(C)C)c2)cc1 (stereo not drawn) [Example 35, 4-(3-Dimethylaminomethyl-benzyl)-5-hydroxy-3-(7-methoxy-benzo[1,3]dioxol-5-yl)-5-(4-methoxy-phenyl)-5H-furan-2-one 2-hydroxyethanesulfonate]
